The values below come from ChEMBL document CHEMBL5465560, “Selectivity Literature for EUbOPEN Chemogenomic Library” (2024).

For assay [1], the target named is SRSF protein kinase 1 (Homo sapiens, UniProt Q96SB4). Put plainly: Selectivity interaction (KinomeScan (DiscoverX)) EUB0000595a SRPK1. As to conditions: at 10 µM.
Assay [2] has as its target Leukocyte tyrosine kinase receptor (Homo sapiens, UniProt P29376). Put plainly: Selectivity interaction (Kinase panel (Invitrogen)) EUB0000639a LTK. As to conditions: at 200 nM.
Assay [3] concerns the target Dual specificity mitogen-activated protein kinase kinase 1 (Homo sapiens, UniProt Q02750). As to the kind of experiment: Selectivity interaction (Kinase panel (DSF assay)) EUB0001559a MAP2K1. For orientation: Differential scanning fluorimetry follows unfolding on heating by fluorescence.
For assay [4], the target named is T1, Receptor-interacting serine/threonine-protein kinase 1 (Homo sapiens) (UniProt Q13546).
T1 sequence (whole entry): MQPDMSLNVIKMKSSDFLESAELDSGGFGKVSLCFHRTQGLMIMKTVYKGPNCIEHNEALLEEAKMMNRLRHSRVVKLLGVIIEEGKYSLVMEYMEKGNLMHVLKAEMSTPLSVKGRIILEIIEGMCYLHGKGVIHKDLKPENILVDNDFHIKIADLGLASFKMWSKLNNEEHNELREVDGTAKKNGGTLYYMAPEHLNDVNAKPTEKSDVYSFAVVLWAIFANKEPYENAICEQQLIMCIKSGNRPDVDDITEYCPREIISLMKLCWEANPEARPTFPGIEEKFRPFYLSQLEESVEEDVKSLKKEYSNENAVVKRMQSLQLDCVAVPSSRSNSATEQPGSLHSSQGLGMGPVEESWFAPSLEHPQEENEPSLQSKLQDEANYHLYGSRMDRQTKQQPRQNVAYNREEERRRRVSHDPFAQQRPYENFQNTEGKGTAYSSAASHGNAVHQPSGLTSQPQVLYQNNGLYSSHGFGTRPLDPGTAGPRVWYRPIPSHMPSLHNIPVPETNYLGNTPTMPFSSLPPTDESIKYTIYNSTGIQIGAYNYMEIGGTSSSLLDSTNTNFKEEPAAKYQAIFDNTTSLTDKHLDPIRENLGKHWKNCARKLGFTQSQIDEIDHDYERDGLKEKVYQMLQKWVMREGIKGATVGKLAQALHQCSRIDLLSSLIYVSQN
As to the kind of experiment: Selectivity interaction (KinomeScan (DiscoverX)) EUB0000045b RIPK1.

In assay [5] the target is Calcium/calmodulin-dependent protein kinase kinase 2 (Homo sapiens) (UniProt Q96RR4). Put plainly: Selectivity interaction (KinomeScan (DiscoverX)) EUB0000655a CAMKK2. The following applies: at 10 µM.
Sequence of Calcium/calmodulin-dependent protein kinase kinase 2 (Homo sapiens) (Q96RR4 2-588 limits assumed): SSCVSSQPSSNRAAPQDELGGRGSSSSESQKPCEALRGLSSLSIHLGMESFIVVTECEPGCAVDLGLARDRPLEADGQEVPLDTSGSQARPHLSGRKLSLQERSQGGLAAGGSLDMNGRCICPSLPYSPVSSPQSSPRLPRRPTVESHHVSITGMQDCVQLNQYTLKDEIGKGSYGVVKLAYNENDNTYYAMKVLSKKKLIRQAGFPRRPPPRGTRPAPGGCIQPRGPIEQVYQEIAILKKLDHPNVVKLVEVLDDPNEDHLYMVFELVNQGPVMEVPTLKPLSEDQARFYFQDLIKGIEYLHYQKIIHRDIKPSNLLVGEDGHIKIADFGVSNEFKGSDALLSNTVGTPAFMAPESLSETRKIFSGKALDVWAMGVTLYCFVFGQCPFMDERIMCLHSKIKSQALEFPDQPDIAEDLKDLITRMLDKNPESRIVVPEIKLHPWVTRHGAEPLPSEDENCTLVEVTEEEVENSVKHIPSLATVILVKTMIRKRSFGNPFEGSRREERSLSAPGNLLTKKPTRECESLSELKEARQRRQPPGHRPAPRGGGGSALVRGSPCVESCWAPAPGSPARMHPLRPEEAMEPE
The target in assay [6] is T2, Tyrosine-protein kinase Tec (Homo sapiens) (UniProt P42680).
T2 sequence (whole entry): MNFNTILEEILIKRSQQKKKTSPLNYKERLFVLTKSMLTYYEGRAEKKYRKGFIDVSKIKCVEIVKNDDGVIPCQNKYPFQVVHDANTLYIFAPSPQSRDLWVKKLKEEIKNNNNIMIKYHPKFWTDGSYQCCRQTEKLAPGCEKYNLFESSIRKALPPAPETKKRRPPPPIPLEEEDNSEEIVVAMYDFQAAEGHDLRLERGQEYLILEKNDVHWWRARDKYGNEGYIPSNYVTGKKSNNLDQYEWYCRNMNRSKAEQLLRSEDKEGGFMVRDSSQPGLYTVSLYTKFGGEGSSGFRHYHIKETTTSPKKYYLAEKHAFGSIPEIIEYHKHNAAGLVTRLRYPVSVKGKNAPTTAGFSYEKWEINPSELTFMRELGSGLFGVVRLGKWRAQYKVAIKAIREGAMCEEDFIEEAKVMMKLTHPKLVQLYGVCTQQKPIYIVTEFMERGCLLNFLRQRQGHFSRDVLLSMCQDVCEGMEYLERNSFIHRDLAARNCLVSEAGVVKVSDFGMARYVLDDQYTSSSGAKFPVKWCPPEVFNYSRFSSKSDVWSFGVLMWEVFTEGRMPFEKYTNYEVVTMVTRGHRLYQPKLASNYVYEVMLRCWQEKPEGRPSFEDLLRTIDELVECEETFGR
As to the kind of experiment: Selectivity interaction (KinomeScan (DiscoverX)) EUB0000618a TEC. The following applies: at 10 µM.

The target in assay [7] is T3, Serine/threonine-protein kinase 36 (Homo sapiens) (UniProt Q9NRP7).
T3 sequence (whole entry): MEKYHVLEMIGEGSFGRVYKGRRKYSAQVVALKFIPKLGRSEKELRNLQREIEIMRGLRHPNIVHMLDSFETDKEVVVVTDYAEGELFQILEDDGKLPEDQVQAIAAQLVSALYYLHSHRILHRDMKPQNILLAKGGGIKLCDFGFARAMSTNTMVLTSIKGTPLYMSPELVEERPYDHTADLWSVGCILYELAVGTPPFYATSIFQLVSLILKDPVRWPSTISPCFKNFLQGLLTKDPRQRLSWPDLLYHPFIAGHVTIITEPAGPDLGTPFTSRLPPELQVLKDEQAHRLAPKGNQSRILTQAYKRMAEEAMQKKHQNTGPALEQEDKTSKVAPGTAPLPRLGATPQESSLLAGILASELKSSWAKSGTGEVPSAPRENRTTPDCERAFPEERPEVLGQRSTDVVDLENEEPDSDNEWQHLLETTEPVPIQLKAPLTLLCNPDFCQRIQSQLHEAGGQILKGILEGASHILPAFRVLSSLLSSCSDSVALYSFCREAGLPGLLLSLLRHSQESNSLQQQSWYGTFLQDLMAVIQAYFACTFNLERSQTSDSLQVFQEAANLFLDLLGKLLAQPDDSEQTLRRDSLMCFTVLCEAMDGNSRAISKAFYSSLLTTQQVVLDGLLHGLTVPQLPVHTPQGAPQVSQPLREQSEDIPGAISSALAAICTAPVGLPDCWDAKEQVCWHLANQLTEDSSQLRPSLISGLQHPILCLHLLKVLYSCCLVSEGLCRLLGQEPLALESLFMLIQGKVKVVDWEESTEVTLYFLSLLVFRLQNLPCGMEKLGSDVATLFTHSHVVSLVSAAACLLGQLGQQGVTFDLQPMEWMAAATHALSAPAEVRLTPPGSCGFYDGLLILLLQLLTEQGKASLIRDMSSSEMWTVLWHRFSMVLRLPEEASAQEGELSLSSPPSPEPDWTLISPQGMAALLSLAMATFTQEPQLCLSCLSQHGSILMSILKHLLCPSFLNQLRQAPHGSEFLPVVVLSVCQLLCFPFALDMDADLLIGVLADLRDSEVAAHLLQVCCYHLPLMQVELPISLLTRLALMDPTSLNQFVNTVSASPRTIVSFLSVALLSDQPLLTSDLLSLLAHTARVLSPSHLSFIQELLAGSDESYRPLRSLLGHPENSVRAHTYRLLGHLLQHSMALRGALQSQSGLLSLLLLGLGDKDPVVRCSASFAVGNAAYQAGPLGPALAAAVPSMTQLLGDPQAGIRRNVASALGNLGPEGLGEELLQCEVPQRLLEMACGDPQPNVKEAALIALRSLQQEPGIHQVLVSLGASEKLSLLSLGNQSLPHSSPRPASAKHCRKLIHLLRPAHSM
As to the kind of experiment: Selectivity interaction (KinomeScan (DiscoverX)) EUB0000618a STK36. The following applies: at 10 µM.

The target of assay [8] is 5'-AMP-activated protein kinase catalytic subunit alpha-2 (Homo sapiens) (UniProt P54646). Put plainly: Selectivity interaction (KinomeScan (DiscoverX)) EUB0000092b PRKAA2. The following applies: at 10 µM.
Sequence of 5'-AMP-activated protein kinase catalytic subunit alpha-2 (Homo sapiens) (P54646 whole entry, looked up): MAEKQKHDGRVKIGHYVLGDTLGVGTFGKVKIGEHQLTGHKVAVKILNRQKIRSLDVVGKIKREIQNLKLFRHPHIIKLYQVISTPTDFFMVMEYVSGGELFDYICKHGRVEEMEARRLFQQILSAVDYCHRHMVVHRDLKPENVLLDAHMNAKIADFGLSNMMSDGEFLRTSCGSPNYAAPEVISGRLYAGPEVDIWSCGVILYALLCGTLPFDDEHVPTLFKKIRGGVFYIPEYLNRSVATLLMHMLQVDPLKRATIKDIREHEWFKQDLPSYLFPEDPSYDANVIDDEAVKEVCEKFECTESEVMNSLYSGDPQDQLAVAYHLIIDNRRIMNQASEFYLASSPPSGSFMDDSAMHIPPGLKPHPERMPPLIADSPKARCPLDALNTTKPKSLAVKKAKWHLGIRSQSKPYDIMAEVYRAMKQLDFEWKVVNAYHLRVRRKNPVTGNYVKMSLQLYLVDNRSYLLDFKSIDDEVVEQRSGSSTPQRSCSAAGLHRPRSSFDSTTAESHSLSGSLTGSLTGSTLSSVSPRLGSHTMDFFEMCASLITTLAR

Sequence of Dual specificity mitogen-activated protein kinase kinase 1 (Q02750 whole entry): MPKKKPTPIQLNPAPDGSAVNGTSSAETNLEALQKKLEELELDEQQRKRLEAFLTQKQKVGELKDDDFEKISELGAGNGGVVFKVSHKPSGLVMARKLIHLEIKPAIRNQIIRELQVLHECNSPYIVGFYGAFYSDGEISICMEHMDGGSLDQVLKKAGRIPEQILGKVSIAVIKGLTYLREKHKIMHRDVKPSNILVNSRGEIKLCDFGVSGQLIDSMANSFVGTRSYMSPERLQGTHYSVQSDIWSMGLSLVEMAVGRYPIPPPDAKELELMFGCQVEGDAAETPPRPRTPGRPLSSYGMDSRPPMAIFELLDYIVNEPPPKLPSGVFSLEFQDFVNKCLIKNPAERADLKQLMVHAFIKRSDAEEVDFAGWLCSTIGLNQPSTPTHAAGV
Sequence of Leukocyte tyrosine kinase receptor (P29376 whole entry): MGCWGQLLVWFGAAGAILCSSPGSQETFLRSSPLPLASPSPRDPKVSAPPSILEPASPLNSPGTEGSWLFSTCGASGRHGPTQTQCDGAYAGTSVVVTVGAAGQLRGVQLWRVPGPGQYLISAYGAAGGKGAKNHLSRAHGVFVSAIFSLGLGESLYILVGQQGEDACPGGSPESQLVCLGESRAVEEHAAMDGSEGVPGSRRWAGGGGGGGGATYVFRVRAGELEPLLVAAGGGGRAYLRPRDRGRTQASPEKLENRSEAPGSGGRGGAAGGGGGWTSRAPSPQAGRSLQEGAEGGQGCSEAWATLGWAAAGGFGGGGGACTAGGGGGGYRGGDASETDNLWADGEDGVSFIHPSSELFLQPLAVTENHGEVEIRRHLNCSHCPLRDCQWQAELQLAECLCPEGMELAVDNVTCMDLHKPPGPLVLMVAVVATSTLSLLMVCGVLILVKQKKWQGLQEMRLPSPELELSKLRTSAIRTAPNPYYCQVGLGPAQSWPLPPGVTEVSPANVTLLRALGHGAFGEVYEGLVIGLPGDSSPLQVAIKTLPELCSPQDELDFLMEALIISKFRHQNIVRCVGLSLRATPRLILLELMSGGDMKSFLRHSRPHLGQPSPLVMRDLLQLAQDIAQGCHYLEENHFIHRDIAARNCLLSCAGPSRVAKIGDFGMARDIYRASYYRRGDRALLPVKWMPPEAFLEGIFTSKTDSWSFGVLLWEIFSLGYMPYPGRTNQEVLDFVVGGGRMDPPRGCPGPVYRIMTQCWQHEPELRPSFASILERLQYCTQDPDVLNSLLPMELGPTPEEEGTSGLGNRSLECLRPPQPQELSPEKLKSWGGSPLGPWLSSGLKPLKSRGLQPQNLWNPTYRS
Sequence of SRSF protein kinase 1 (Q96SB4 whole entry): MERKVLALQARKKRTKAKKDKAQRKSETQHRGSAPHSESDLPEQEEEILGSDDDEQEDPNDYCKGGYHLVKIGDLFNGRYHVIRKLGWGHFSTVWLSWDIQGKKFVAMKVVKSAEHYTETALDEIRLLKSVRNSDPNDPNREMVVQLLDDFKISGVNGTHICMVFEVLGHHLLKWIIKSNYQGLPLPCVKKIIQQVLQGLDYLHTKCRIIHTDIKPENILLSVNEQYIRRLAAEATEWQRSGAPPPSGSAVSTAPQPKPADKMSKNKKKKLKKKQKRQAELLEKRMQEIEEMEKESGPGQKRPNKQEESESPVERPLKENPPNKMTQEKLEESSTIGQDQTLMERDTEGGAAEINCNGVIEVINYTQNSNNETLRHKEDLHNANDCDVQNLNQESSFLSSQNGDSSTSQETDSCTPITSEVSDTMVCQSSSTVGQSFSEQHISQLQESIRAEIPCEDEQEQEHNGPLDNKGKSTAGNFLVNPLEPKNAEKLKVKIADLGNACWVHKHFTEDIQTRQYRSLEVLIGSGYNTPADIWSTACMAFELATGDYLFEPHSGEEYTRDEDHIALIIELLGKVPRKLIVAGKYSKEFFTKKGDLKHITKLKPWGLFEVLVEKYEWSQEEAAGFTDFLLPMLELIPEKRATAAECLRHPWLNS

Turning to `COCC(=O)NC/C=C/c1ccc2ncnc(Nc3ccc(Oc4ccc(C)nc4)c(C)c3)c2c1` [CP-724714], the % of control in assay [1] was 100%.

As for `CC[C@@H]1[C@H](F)C(=O)N[C@@H]1COc1nccc2cc(C(N)=O)c(OC)cc12` [ZIMLOVISERTIB], the % of inhibition in assay [2] was determined as 5.58%.

The molecule `CN(C(=O)c1cnn2cccnc12)c1cc2c(cc1N1CCOCC1)C(=O)N(C[C@@H](F)C(C)(C)O)C2` registered a dTM in assay [3] of -0.8 K.

As for `C=CC(=O)Nc1cc(-n2c(=O)ccc3cnc4ccc(-c5ccc(NS(C)(=O)=O)cc5)cc4c32)ccc1C`, the % of control came out at 87% in assay [4] (at 1 µM) and 100% in assay [4] (at 10 µM).

For `CN(C)CCOc1ccc(-c2nc(-c3ccncc3)c(-c3ccc4c(c3)CC/C4=N\O)[nH]2)cc1`, in assay [5], the % of control turned out to be 88%.

As for `O[C@H]1CC[C@H](Nc2ncc3nc(Nc4c(F)cc(F)cc4F)n([C@H]4CCOC4)c3n2)CC1`, the % of control in assay [6] came to 100%; in assay [7] it was 6.5%.

`CCC(=O)N1CCN(c2ccc(-n3c(=O)ccc4cnc5ccc(-c6cnc7ccccc7c6)cc5c43)cc2C(F)(F)F)CC1` had a % of control in assay [8] of 74%.
